This note sets out measurements from the OligoGym collection.

“And” between values parts separate entries of the source, which are not always exact repeats. Equal entries are not always repeated. After the bases stand the sugars from the 5' end (letter, count) and the backbone: PS all phosphorothioate, else s phosphorothioate and o phosphodiester by linkage. Methylation of C is not given here. e = 2'-O-(2-methoxyethyl) (MOE); d = 2'-deoxy (DNA)

The target of this data set is DGAT2. The note with it: ASO.

Regarding “AAAGATATAGTTCCTGGTGG (sugars e5 d10 e5, PS)”, under “HepG2, 0.12 µM”, the target mRNA inhibition amounted to 54%.
On the same count and under the same terms, to “CAGGCATGGAGCTCAGAGAC (sugars e2 d13 e5, PS)” belongs 70%; to “ACCCACTGGAGCACTGAGAT (sugars e5 d10 e5, PS)”, 72%.
Same read-out and setting: next, “GCTTGGAGTAGGGCACCAGC (sugars e5 d10 e5, PS)”: 45%.
As to “AGCCTGGACAAGTCCTGCCC (sugars e3 d14 e3, PS)”, the target mRNA inhibition (HepG2, 0.12 µM) stood at 82%; the target mRNA inhibition (HepG2, 2.5 µM) was 35% and 53%; the target mRNA inhibition (HepG2, 10 µM) is 84%; the target mRNA inhibition (HepG2, 20 µM) came out at 59%.
Regarding “GTGTCGGAGGAGAAGAGGCC (sugars e5 d10 e5, PS)”, the target mRNA inhibition (HepG2, 0.12 µM) was found to be 52%.
“CATGGAGCTCAGAGACTCAG (sugars e5 d10 e5, PS)”: the target mRNA inhibition (HepG2, 0.12 µM) came out at 65%.
Regarding “GGATAGTCGATTTACCAGAA (sugars e5 d10 e5, PS)”, the target mRNA inhibition reads like this: (HepG2, 2.5 µM) 69%; (HepG2, 10 µM) 85%.
The matching figures for “GGCATGCTTCCTCCCAC (sugars e3 d10 e4, PS)”: 56% and 56%.
On to “TCCAATGCACCTTGTATTAA (sugars e5 d10 e5, PS)”, for which the target mRNA inhibition reads like this: (HepG2, 2.5 µM) 72% and 52%; (HepG2, 10 µM) 92% and 83%.
Turning to “AGCTGTGATGACTTCCCAGG (sugars e5 d10 e5, PS)”, the target mRNA inhibition came out at 52% (HepG2, 2.5 µM) and 91% (HepG2, 10 µM).
Regarding “AAATGGTAGCCCCTTGTTGC (sugars e5 d10 e5, PS)”, the target mRNA inhibition (HepG2, 0.12 µM) turned out to be 32%.
On the same count and under the same terms, next, “GGTCAGCAGGTTGTGTGTCT (sugars e2 d13 e5, PS)”: 45%.
In the case of “TAGGATGCTTAACTTCTGCT (sugars e5 d10 e5, PS)”, the target mRNA inhibition was determined as 58% (HepG2, 2.5 µM) and 85% (HepG2, 10 µM).
“TGTTATCCGAGTTGAATTCT (sugars e5 d10 e5, PS)”: the target mRNA inhibition (HepG2, 0.12 µM) stood at 45%.
Still for that read-out and setting: to “AACACTCACAGCACTTTACC (sugars e5 d10 e5, PS)” belongs 4%; to “ATGGGAAAGTAGTCTCGAAA (sugars e5 d10 e5, PS)”, 0%.
Still for that read-out and setting: to “TTTGGATAGTCGATTTACCA (sugars e5 d10 e5, PS)” belongs 41%.
As to “GTACAAGTTTCTCCACCTAT (sugars e5 d10 e5, PS)”, the target mRNA inhibition is 68% and 88% (HepG2, 2.5 µM); 79% and 87% (HepG2, 10 µM).
As to “TTCCTCATCTATACAGTGGG (sugars e5 d10 e5, PS)”, the target mRNA inhibition was 57% and 72% and 73% (HepG2, 2.5 µM); 89% and 82% and 92% (HepG2, 10 µM).
Under “HepG2, 0.12 µM”, “TAGCATTGCCACTCCCATTC (sugars e2 d13 e5, PS)” came in with a target mRNA inhibition of 60%.
Still for that read-out and setting: next, “CAGCAGGTTGTGTGTCTTCA (sugars e3 d14 e3, PS)”: 47%.
With “GGGAAAGGTCTTCTCCAGCT (sugars e5 d10 e5, PS)”, the target mRNA inhibition is, setting by setting: (HepG2, 2.5 µM) 86% and 85%; (HepG2, 10 µM) 92% and 91%.
